Bounds are passed on as bounds.

The record followed here is patent US10988474B2, “Compounds acting at multiple prostaglandin receptors giving a general anti-inflammatory response” (ALLERGAN, INC., priority 2011, dated 2021).

Format in all cases: cell-based
In experiment [1] the target is T1, human prostanoid TP receptor (Homo sapiens, UniProt P21731).
T1 construct: expressed in transfected cells
T1 sequence (P21731 1-343): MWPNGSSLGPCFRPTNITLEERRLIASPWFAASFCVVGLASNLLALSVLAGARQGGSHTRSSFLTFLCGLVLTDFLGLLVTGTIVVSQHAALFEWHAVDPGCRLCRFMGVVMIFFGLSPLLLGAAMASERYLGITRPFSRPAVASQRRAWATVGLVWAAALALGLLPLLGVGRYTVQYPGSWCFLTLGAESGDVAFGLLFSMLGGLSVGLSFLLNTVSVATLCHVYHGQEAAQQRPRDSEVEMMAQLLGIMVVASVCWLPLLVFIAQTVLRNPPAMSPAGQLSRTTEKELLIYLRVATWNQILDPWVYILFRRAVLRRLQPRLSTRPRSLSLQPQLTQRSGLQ
Nature of the experiment: FLIPR Ca2+ signaling PG antagonist assay, TP stable cell line. The conditions noted are these: HEK-293 EBNA cells, human recombinant TP, no exogenous G-protein; standard agonist U-46619. An outline of the steps: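 HEK-293 EBNA stable lines; EP2 co-expressed with chimeric Gqs, EP1/IP/TP with no exogenous G protein. Fluo-4AM-loaded cells pretreated 4.5 min at 37 °C with compound (0.1–30 μM; TP 0.067–1 μM), then standard agonist (PGE2, cicaprost, U-46619) 10^−11–10^−5 M (TP 10^−12–10^−6 M); peak fluorescence read 3.5 min, nonlinear regression.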

The target of experiment [2] is T2, human prostanoid EP2 receptor (Homo sapiens, UniProt P43116).
T2 construct: expressed in transfected cells
Nature of the experiment: FLIPR Ca2+ signaling PG antagonist assay, EP2 stable cell line. Conditions: HEK-293 EBNA cells, human recombinant EP2 with chimeric Gqs; standard agonist PGE2. The method, then:
(§1) The above compounds were tested for PG antagonist activity as follows using human recombinant prostanoid receptor (DP1, EP1-4, FP, IP and TP) stable cell lines: In order to measure the response of Gs and Gi coupled prostanoid receptors as a Ca^2+ signal, chimeric G protein cDNAs were used. Stable cell lines over-expressing human prostanoid DP1, EP1-4, FP, IP, and TP receptors were established as follows:
(§2) Briefly, human prostanoid DP1, EP2, and EP4 receptor cDNAs were co-transfected with chimeric Gqs cDNA containing a haemagglutanin (HA) epitope; human prostanoid EP3 receptors were co-transfected with chimeric Gqi-HA; human EP1, FP, IP, and TP receptor cDNAs were expressed with no exogenous G-proteins. Gqs and Gqi chimeric cDNAs (Molecular Devices, Sunnyvale, Calif., U.S.A.), as well as cDNAs of prostanoid receptors, were cloned into a pCEP4 vector with a hygromycin B selection marker. Transfection into HEK-293 EBNA (Epstein-Barr virus nuclear antigen) cells was achieved by the FuGENE 6 transfection Reagent (Roche Applied Science, Indianapolis, Ind., USA). Stable transfectants were selected according to hygromycin resistance. Because Gqs and Gqi contained an HA epitope, G-protein expression was detected by Western blotting analysis using anti-mouse HA monoclonal antibody and horseradish peroxidase (HRP)-conjugated secondary antibody, while functional expression of prostanoid receptors was detected by FLIPR screening (Matias et al., 2004). These stable cell lines were validated using previously published antagonists at 10 μM against serial dilutions of standard agonists by FLIPR functional assays for Ca^2+ Signaling (as described below).
(§3) Ca^2+ signaling studies were performed using a FLIPR TETRA system (Molecular Devices, Sunnyvale, Calif., USA) in the 384-format. This is a high-throughput instrument for cell-based assays to monitor Ca^2+ signaling associated with GPCRs and ion channels. Cells were seeded at a density of 5×10^4 cells/well in BioCoat poly-D-lysine coated, black wall, clear bottom 384-well plates (BD Biosciences, Franklin lakes, NJ, USA) and allowed to attach overnight in an incubator at 37° C. The cells were then washed twice with HBSS-HEPES buffer (Hanks' balanced salt solution without bicarbonate and phenol red, 20 mM HEPES, pH 7.4) using an ELx405 Select CW Microplate Washer (BioTek, Winooski, Vt., USA). After 60 min of dye-loading in the dark using the Ca^2+-sensitive dye Fluo-4AM (Invitrogen, Carlsbad, Calif., USA), at a final concentration of 2×10^−6M, the plates were washed 4 times with HBSS-HEPES buffer to remove excess dye and leaving 50 μl of buffer in each well. The plates were then placed in the FLIPR TETRA instrument and allowed to equilibrate at 37° C. Compounds were added in a 25 μl volume to each well to give final concentrations of 0.1 μM, 0.3 μM, 1 μM, 3 μM, 10 μM, and 30 μM; or 0.067 μM, 0.1 μM, 0.2 μM, 0.3 μM, 0.67 μM, and 1 μM for cells over-expressing TP receptors. After 4.5 minutes, a 7-point serial dilution of the standard agonist for the corresponding receptor, in a 25 μl volume was injected at the final concentrations from 10^−11M to 10^−5M in 10-fold serial dilution increments for cells expressing human recombinant DP1, EP1, EP2, EP3, EP4, FP, and IP receptors. The dose range for the standard agonist for human recombinant TP receptors was from 10^−12M to 10^−6M. HBSS-HEPES buffer was used as the negative control for the standard agonists. Cells were excited with LED (light emitting diode) excitation at 470-495 nm and emission was measured through an emission filter at 515-575 nm. Assay plates were read for 3.5 minutes using the FLIPR^TETRA. The peak increase in fluorescence intensity was recorded for each well. On each plate, negative controls, dose response of positive controls, and co-treatments of antagonist-agonist for each dose were in triplicates. Standard agonists were as follows: DP=BW 245C, EP1-EP4=PGE2, FP=17-phenyl-PGF2α, IP=Cicaprost, and TP=U-46619. […]

The target in experiment [3] is T3, human prostanoid EP1 receptor (Homo sapiens, UniProt P34995).
T3 construct: expressed in transfected cells
T3 sequence (P34995 1-402): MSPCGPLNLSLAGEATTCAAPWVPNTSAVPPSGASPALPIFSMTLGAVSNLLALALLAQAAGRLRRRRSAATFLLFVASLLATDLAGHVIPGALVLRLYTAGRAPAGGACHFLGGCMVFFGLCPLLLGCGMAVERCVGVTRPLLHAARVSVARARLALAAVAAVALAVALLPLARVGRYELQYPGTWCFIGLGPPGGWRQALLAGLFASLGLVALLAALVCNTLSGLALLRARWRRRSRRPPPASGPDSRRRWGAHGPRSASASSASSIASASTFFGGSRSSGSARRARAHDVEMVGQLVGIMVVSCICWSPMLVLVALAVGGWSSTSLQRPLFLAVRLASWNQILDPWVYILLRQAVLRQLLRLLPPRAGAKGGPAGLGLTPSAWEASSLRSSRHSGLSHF
As to the kind of experiment: FLIPR Ca2+ signaling PG antagonist assay, EP1 stable cell line. The conditions noted are these: HEK-293 EBNA cells, human recombinant EP1, no exogenous G-protein; standard agonist PGE2. The method, then:
as §1, §2, §3

T2 sequence (P43116 whole entry): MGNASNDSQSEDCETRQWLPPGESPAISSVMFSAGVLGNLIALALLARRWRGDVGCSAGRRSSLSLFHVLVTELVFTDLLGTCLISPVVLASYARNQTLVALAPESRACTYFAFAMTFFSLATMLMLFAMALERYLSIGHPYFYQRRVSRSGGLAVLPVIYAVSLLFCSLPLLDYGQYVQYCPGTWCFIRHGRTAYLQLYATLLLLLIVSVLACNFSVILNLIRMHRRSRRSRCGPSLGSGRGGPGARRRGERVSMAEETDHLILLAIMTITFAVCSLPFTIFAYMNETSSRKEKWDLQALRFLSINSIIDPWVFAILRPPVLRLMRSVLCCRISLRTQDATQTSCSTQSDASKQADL

In general, Kb refers to the equilibrium dissociation constant of an antagonist, usually derived from a functional assay. Regarding `O=C(O)c1cccc2c1cnn2Cc1cc(Cl)ccc1OCc1ccc(Cl)cc1` [Example 40, 1-[5-Chloro-2-(4-Chloro-Benzyloxy)-Benzyl]-1H-Indazole-4-Carboxylic Acid], the “TP (Kb, PG antagonist activity)” value in experiment [1] is recorded as “Ag”. Also, the antagonist equilibrium constant (Kb) in experiment [2] is 900 nM; in experiment [3] it was 60 nM.
As to `O=C(O)c1cccc2nn(Cc3cc(Cl)ccc3OCc3ccc(Cl)cc3)cc12` [Example 41, 2-[5-Chloro-2-(4-Chloro-Benzyloxy)-Benzyl]-2H-Indazole-4-Carboxylic Acid], the Kb in experiment [1] is 7400 nM; in experiment [2] it was at least 10000 nM; in experiment [3], at least 10000 nM.
For `CC(C)COc1ccc(Br)cc1Cn1ncc2ccc(C(=O)O)cc21` [Example 42, 1-(5-Bromo-2-Isobutoxy-Benzyl)-1H-Indazole-6-Carboxylic Acid], the results for the Kb in experiment [1], in experiment [2] and in experiment [3] were 20 nM, at least 10000 nM and 24 nM, respectively.
As for `O=C(O)c1ccc2cnn(Cc3cc(Br)ccc3OCC3CCCC3)c2c1` [Example 44, 1-(5-Bromo-2-Cyclopentylmethoxy-Benzyl)-1H-Indazole-6-Carboxylic Acid], the antagonist equilibrium constant (Kb) in experiment [1] was 1 nM; in experiment [2], at least 10000 nM; in experiment [3] it was 240 nM.
The corresponding values for `O=C(O)c1ccc2cn(Cc3cc(Br)ccc3OCC3CCCC3)nc2c1` [Example 45, 2-(5-Bromo-2-Cyclopentylmethoxy-Benzyl)-2H-Indazole-6-Carboxylic Acid] are 80 nM, at least 10000 nM and 23 nM.
On to `CCC(CC)COc1ccc(Cl)cc1Cn1ncc2ccc(C(=O)O)cc21` [Example 46, 1-[5-Chloro-2-(2-Ethyl-Butoxy)-Benzyl]-1H-Indazole-6-Carboxylic Acid], for which the Kb in experiment [1] is 150 nM; in experiment [2] it was at least 10000 nM; in experiment [3], 7100 nM.
In the case of `CC(C)COc1c(F)cc(Cl)cc1Cn1ncc2cc(C(=O)O)ccc21` [Example 47, 1-(5-Chloro-3-Fluoro-2-Isobutoxy-Benzyl)-1H-Indazole-5-Carboxylic Acid], the Kb in experiment [1] is at least 10000 nM; in experiment [2] it was at least 10000 nM; in experiment [3], 2000 nM.
As to `CC(C)COc1ccc(S(C)(=O)=O)cc1Cn1ncc2cc(C(=O)O)ccc21` [Example 48, 1-(2-Isobutoxy-5-Methanesulfonyl-Benzyl)-1H-Indazole-5-Carboxylic Acid], the Kb is 500 nM in experiment [1], at least 10000 nM in experiment [2] and 260 nM in experiment [3].
The corresponding values for `CC(C)COc1cc(Cl)c(Cl)cc1Cn1ncc2cc(C(=O)O)ccc21` [Example 49, 1-(4,5-Dichloro-2-Isobutoxy-Benzyl)-1H-Indazole-5-Carboxylic Acid] are 6 nM, at least 10000 nM and 540 nM.
In the same order, the values of `Cc1ccc(OCC(C)C)c(Cn2ncc3cc(C(=O)O)ccc32)n1` [Example 50, 1-(3-Isobutoxy-6-Methyl-Pyridin-2-ylmethyl)-1H-Indazole-5-Carboxylic Acid] are 5700 nM, at least 10000 nM and 90 nM.
In the same order, the values of `CCC(CC)Oc1ccc(Br)cc1Cn1ncc2cc(C(=O)O)ccc21` [Example 51, 1-[5-Bromo-2-(1-Ethyl-Propoxy)-Benzyl]-1H-Indazole-5-Carboxylic Acid] are 50 nM, at least 10000 nM and 70 nM.
For the compound `CC(C)(C)COc1ccc(Br)cc1Cn1ncc2cc(C(=O)O)ccc21` [Example 52, 1-[5-Bromo-2-(2,2-Dimethyl-Propoxy)-Benzyl]-1H-Indazole-5-Carboxylic Acid], the antagonist equilibrium constant (Kb) in experiment [1] was 2 nM; in experiment [2], 3800 nM; in experiment [3] it was 24 nM.
For the compound `CC(C)(O)COc1ccc(Br)cc1Cn1ncc2cc(C(=O)O)ccc21` [Example 53, 1-[5-Bromo-2-(2-Hydroxy-2-Methyl-Propoxy)-Benzyl]-1H-Indazole-5-Carboxylic Acid], the Kb is 1200 nM in experiment [1], at least 10000 nM in experiment [2] and 1500 nM in experiment [3].
